Here are results for two molecules from article PMC8961527, “Protein Binding of Benzofuran Derivatives: A CD Spectroscopic and In Silico Comparative Study of the Effects of 4-Nitrophenyl Functionalized Benzofurans and Benzodifurans on BSA Protein Structure” (Biomolecules, 2022).

The target of assay [1] is T1, bovine serum albumin (BSA) (Bos taurus, UniProt P02769).
T1 construct: gene ALB
The assay is described as follows: intrinsic tryptophan fluorescence quenching titration (apparent kD); supported by CD spectra and CD melting (ΔTm −[…] °C). It is filed as binding.

Assay [2] concerns the target T1, bovine serum albumin (BSA). Description: intrinsic tryptophan fluorescence quenching titration (apparent kD); supported by CD spectra and CD melting (ΔTm +[…] °C). In kind it is binding.

T1 sequence (P02769 25-607): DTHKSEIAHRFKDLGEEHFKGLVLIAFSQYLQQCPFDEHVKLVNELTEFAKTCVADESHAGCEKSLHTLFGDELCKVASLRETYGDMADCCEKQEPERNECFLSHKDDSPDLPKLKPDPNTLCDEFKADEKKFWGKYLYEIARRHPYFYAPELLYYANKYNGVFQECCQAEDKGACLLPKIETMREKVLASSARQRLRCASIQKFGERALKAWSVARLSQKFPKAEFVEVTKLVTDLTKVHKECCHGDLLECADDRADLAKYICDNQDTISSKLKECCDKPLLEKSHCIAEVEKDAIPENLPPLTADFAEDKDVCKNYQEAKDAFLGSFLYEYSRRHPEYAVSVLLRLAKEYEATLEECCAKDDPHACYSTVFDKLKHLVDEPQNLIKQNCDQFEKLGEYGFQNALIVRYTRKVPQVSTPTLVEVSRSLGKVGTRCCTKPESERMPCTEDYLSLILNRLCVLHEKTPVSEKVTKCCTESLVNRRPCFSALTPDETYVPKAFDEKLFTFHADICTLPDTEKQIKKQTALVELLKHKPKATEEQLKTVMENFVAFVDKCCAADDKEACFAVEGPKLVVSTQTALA

On to `CCCCOC(=O)c1c(N)oc2c(-c3ccc([N+](=O)[O-])cc3)c3c(C(=O)OCCCC)c(N)oc3cc12` [BDF1], for which the Kd in assay [1] was 142 ± 64.6 nM.

Take `CCCCOC(=O)c1c(N)oc2ccc(O)c(-c3ccc([N+](=O)[O-])cc3)c12` [BF1]: the Kd in assay [2] came to 28.4 ± 10.1 nM.
